Our source for the IC50 values is patent US11524966B1 (Valo Early Discovery, Inc., priority 2017, dated 2022).

The structures appear in SMILES notation.

The experiment has as its target T1, USP28 (His-tagged USP28-FL-mammalian) (Homo sapiens, UniProt Q96RU2).
T1 construct: Expression of USP28 (1-1077)-TEV-6*His (pTT5 vector); made in house; host or cells: Expi293f cells (pTT5 vector)
T1 sequence (Q96RU2 1-1077): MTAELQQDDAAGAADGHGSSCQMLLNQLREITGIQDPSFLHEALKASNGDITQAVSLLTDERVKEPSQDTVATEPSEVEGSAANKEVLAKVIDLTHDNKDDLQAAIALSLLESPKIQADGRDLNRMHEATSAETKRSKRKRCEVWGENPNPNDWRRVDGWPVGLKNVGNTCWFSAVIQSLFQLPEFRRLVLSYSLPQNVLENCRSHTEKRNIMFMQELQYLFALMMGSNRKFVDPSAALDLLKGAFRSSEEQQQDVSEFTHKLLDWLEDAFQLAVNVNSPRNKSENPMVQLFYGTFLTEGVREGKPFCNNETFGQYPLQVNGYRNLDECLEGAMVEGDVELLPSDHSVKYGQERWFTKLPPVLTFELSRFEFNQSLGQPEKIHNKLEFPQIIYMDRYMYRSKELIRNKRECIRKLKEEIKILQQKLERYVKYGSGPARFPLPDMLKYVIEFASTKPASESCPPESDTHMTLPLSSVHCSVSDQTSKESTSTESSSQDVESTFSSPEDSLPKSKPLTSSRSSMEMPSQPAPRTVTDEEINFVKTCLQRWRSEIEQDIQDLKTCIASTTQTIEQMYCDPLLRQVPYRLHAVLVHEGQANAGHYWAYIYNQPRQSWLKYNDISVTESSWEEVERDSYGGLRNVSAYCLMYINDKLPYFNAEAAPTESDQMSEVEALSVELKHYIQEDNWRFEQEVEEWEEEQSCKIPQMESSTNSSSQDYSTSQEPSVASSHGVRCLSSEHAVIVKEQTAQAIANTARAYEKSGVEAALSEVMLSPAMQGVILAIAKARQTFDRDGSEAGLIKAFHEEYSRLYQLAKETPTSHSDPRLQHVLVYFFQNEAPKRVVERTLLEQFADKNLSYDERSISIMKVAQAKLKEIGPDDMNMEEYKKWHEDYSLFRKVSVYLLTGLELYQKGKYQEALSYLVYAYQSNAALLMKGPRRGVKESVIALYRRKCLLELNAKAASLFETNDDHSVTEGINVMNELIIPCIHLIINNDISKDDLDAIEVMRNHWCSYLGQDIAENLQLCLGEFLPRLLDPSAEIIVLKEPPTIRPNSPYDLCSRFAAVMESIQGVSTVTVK
Nature of the experiment: Ubiquitin-Rhodamine 110 Assay for USP28 Activity, Example A-1(a). The format is biochemical. The settings on record: Ubiquitin-Rhodamine 110 assay, Example A-1(a); read-out: USP28 A-1(a) IC50 range. The procedure: Example A-1(a): Biochemical Assay: Ubiquitin-Rhodamine 110 Assay for USP28 Activity
The assay was performed in a final volume of 9 μL in assay buffer containing 20 mM Tris-HCl (pH 8.0, (1M Tris-HCl, pH 8.0 solution; Corning 46-031-CM)), 3 mM BME (2-Mercaptoethanol; Sigma 63689-25ML-F), 0.03% BGG (0.22 μM filtered, Sigma, G7516-25G), and 0.01% Triton X-100 (Sigma, T9284-10L). Nanoliter quantities of 10-point, 3-fold serial dilution in DMSO was pre-dispensed into 1536 assay plates (Corning, #3724BC) for a final test concentration of 25 μM to 1.3 nM, top to lowest dose, respectively. Enzyme USP28, construct His-tagged USP28-FL-mammalian, (protein expression and purification procedure described below). Concentration and incubation times were optimized for the maximal signal-to-background while maintaining initial velocity conditions at a fixed substrate concentration. The final concentration of the enzyme in the assay was 75 μM. Final substrate (Ub-Rh110; Ubiquitin-Rhodamine 110, UbiQ-126) concentration was 25 nM with [Ub-Rh110]<<Km. 3 μL of 2× enzyme was added to assay plates (pre-stamped with compound) preincubated with […] for 30 minutes and then 3 μL of 2×Ub-Rh110 was added to assay plates. Plates were incubated for 45 minutes at room temperature before addition of 3 μL of stop solution (final concentration of 10 mM citric acid (Sigma, 251275-500G)). Fluorescence was read on the Envision (Excitation at 485 nm and Emission at 535 nm; Perkin Elmer) or on the PheraSTAR (Excitation at 485 nm and Emission at 535 nm; BMG Labtech).
Procedure for the Protein Expression and Purification for Construct His-Tagged USP28-FL-Mammalian
Expression of USP28 (1-1077)-TEV-6*His (pTT5 vector) was carried out in Expi293f cells (sequence derived from uniprot ID: Q96RU2-1). Cells were re-suspended in lysis buffer B 50 mM Bicine, pH 8.0, 20 mM NaCl, 5% glycerol, 0.1% CHAPS, 5 mM β-ME, 1 mM PMSF, 1 ug/ml Leupeptin, 1 ug/ml Pepstatin) and lysed by sonication. Insoluble material was removed by centrifugation and the supernatant was loaded onto a Ni-NTA column (GE Healthcare) equilibrated with Ni Buffer A (50 mM Bicine, pH 8.0, 20 mM NaCl, 5% glycerol, 0.1% CHAPS, 5 mM β-ME.) and washed with Ni Buffer A+20 mM imidazole until A280 reached baseline. The protein was eluted with Ni Buffer B (50 mM Bicine, pH 8.0, 20 mM NaCl, 5% glycerol, 0.1% CHAPS, 5 mM β-ME, 300 mM imidazole.). The protein was further purified using a Superdex™ 200 10/300 GL column (GE Healthcare) equilibrated with 50 mM Bicine, pH 8.0, 20 mM NaCl, 5% glycerol, 0.1% CHAPS, 5 mM β-ME. The protein was concentrated to 2.5 mg ml^−1, flash-frozen in liquid N2 and stored at −80° C.
For assay formats Example A-1(a), A-1(b), and A-2, data were reported as percent inhibition compared with control wells based on the following equation: % inh=1−((FLU−AveLow)/(AveHigh−AveLow)) where FLU=measured Fluorescence, AveLow=average Fluorescence of no enzyme control (n=16), and AveHigh=average Fluorescence of DMSO control (n=16). IC50 values were determined by curve fitting of the standard 4 parameter logistic fitting algorithm included in the Activity Base software package: IDBS XE Designer Model 205. Data is fitted using the Levenburg Marquardt algorithm.
The term IC50 denotes the concentration that inhibits the measured activity by half. As for `Cc1ccc2c(N)c(C(=O)N[C@H]3COc4cc(N5CC6CNCC(C5)C6(F)F)ncc4C3)sc2n1` [Example 114, 3-amino-N-[(3R)-7-{9,9-difluoro-3,7-diazabicyclo[3.3.1]nonan-3-yl}-2H,3H,4H-pyrano[3,2-c]pyridin-3-yl]-6-methylthieno[2,3-b]pyridine-2-carboxamide], the IC50 was in the range of 1 to 50 nM.
Take `CC(=O)N[C@@H]1CN(c2ccc3c(n2)CC[C@H](NC(=O)c2sc4nc(C)ccc4c2N)C3)C[C@H]1C(F)F` [Example 372, 3-amino-N-[(6S)-2-[(3R,4S)-3-(difluoromethyl)-4-acetamidopyrrolidin-1-yl]-5,6,7,8-tetrahydroquinolin-6-yl]-6-methylthieno[2,3-b]pyridine-2-carboxamide]: the IC50 lay in the range of 50 to 200 nM.
For the molecule `Cc1ccc2c(N)c(C(=O)N[C@H]3CCc4cc(N5CCNCC5)ncc4C3)sc2n1` (single isomer, unassigned) [Example 32-1], the IC50 was in the range of 50 to 200 nM.
In the case of `Cc1ccc2c(N)c(C(=O)N[C@H]3COc4cc(N5CC[C@]6(C5)OCC[C@H]6N)ccc4C3)sc2n1` [Example 410, 3-amino-N-[(3R)-7-[(4R,5R)-4-amino-1-oxa-7-azaspiro[4.4]nonan-7-yl]-3,4-dihydro-2H-1-benzopyran-3-yl]-6-methylthieno[2,3-b]pyridine-2-carboxamide], the IC50 is 1 to 50 nM.
Turning to `CO[C@H]1CN(c2ncc3c(n2)CC[C@@H](NC(=O)c2sc4nc(C)ccc4c2N)C3)C[C@@H]1N` [Example 187, 3-amino-N-[(6R)-2-[(3S,4S)-3-amino-4-methoxypyrrolidin-1-yl]-5,6,7,8-tetrahydroquinazolin-6-yl]-6-methylthieno[2,3-b]pyridine-2-carboxamide], the IC50 fell in the range of 200 to 2000 nM.
As for `Cc1ccc2c(N)c(C(=O)N[C@H]3COc4cc(N5CC[C@@]6(C5)OCC[C@@H]6N)ccc4C3)sc2n1` [Example 411, 3-amino-N-[(3R)-7-[(4S,5S)-4-amino-1-oxa-7-azaspiro[4.4]nonan-7-yl]-3,4-dihydro-2H-1-benzopyran-3-yl]-6-methylthieno[2,3-b]pyridine-2-carboxamide], the figure is 1 to 50 nM; as for `Cc1ccc2c(N)c(C(=O)N[C@H]3CCc4nc(N5C[C@@H](N)[C@@]6(CCOC6)C5)ccc4C3)sc2n1` [Example 431, 3-amino-N-[(6S)-2-[(5R,9S)-9-amino-2-oxa-7-azaspiro[4.4]nonan-7-yl]-5,6,7,8-tetrahydroquinolin-6-yl]-6-methylthieno[2,3-b]pyridine-2-carboxamide], 50 to 200 nM.
Next, `CCn1ccc2cc(C(=O)N[C@H]3CCc4nc(N5C[C@@H](N)C6(COC6)C5)ccc4C3)cnc21` [Example 404, N-[(6S)-2-[(8S)-8-amino-2-oxa-6-azaspiro[3.4]octan-6-yl]-5,6,7,8-tetrahydroquinolin-6-yl]-1-ethyl-1H-pyrrolo[2,3-b]pyridine-5-carboxamide]: 200 to 2000 nM; `CCn1ccc2cc(C(=O)N[C@H]3CCc4nc(N5C[C@@H](N)[C@H](C(F)(F)F)C5)ccc4C3)cnc21` [Example 422, N-[(6S)-2-[(3S,4R)-3-amino-4-(trifluoromethyl)pyrrolidin-1-yl]-5,6,7,8-tetrahydroquinolin-6-yl]-1-ethyl-1H-pyrrolo[2,3-b]pyridine-5-carboxamide]: 200 to 2000 nM.
As for `Cc1ccc2c(N)c(C(=O)N[C@H]3CCc4nc(N5C[C@H](C(F)F)[C@@H](N)C5)ncc4C3)sc2n1` [Example 380, 3-amino-N-[(6S)-2-[(3R,4S)-3-amino-4-(difluoromethyl)pyrrolidin-1-yl]-5,6,7,8-tetrahydroquinazolin-6-yl]-6-methylthieno[2,3-b]pyridine-2-carboxamide], the figure is 50 to 200 nM; as for `Cc1ccc2c(N)c(C(=O)N[C@H]3COc4cc(N5C[C@@H](N)[C@]6(CCOC6)C5)ccc4C3)sc2n1` [Example 432, 3-amino-N-[(3R)-7-[(5S,9S)-9-amino-2-oxa-7-azaspiro[4.4]nonan-7-yl]-3,4-dihydro-2H-1-benzopyran-3-yl]-6-methylthieno[2,3-b]pyridine-2-carboxamide], 1 to 50 nM; as for `CO[C@@]12CCN[C@H]1CN(c1ccc3c(n1)CC[C@H](NC(=O)c1sc4nc(C)ccc4c1N)C3)C2` [Example 434, N-[(6S)-2-[(3aR,6aS)-3a-methoxy-octahydropyrrolo[2,3-c]pyrrol-5-yl]-5,6,7,8-tetrahydroquinolin-6-yl]-3-amino-6-methylthieno[2,3-b]pyridine-2-carboxamide], 50 to 200 nM.
Consider `COC[C@H]1[C@H](N)CCN1c1ccc2c(n1)CC[C@H](NC(=O)c1sc3nc(C)ccc3c1N)C2` [Example 419, 3-amino-N-[(6S)-2-[(2R,3R)-3-amino-2-(methoxymethyl)pyrrolidin-1-yl]-5,6,7,8-tetrahydroquinolin-6-yl]-6-methylthieno[2,3-b]pyridine-2-carboxamide], for which the IC50 was in the range of 50 to 200 nM.
As to `Cc1ccc2c(N)c(C(=O)N[C@@H]3CCc4cc(N5CCNCC5)ncc4C3)sc2n1` (single isomer, unassigned) [Example 32-2], the IC50 lay within 200 to 2000 nM.
Next, `Cc1ccc2c(N)c(C(=O)N[C@H]3COc4cc(N5C[C@@H](N)[C@@]6(CCOC6)C5)ccc4C3)sc2n1` [Example 433, 3-amino-N-[(3R)-7-[(5R,9S)-9-amino-2-oxa-7-azaspiro[4.4]nonan-7-yl]-3,4-dihydro-2H-1-benzopyran-3-yl]-6-methylthieno[2,3-b]pyridine-2-carboxamide]: 1 to 50 nM; `Cc1ccc2c(N)c(C(=O)N[C@H]3CCc4nc(N5C[C@H](N)C6(C5)OCCO6)ccc4C3)sc2n1` (single isomer, unassigned) [Example 29-1]: 200 to 2000 nM.
